Values of other authors, collected in patent US6706892B1, “Pulmonary delivery for bioconjugation” (priority 1999, dated 2004).

Key:
[1] = in vivo
[2] = system: breast cancer; details: in vivo

half-life [1] | SMILES | cut in the risk of breast cancer [2] [%]
about 24 hours | CC1=NS(=O)(=O)c2cc(Cl)ccc2N1 [Diazoxide] | 
 | O=C(c1ccc(OCCN2CCCCC2)cc1)c1c(-c2ccc(O)cc2)sc2cc(O)ccc12 [Raloxifene] | ≤ 60
